Laboratory results as given in ChEMBL document CHEMBL3885861, “Open TG-GATES”.

Species on record: Rattus norvegicus
Assay: Open TG-GATES - Regimen: Daily Repeat
Assay type: toxicity, organism-based, Sprague-Dawley
Parameters: regimen Daily Repeat, gender Male, age 6 weeks
Details: in vivo, po, 0 mg/kg, route gavage, dose level Control; for APTT / Bas / Eos / Fbg / Hb / Ht / Lym / MCH / MCHC / MCV / Mono / Neu / PT / Plat / RBC / Ret / WBC: tissue Blood; for KIDNEY_L / KIDNEY_R / KIDNEY_TOTAL: tissue Kidney; for LIVER: tissue Liver; for A/G / ALP / ALT / AST / BUN / CRE / Ca / Cl / DBIL / GLC / IP / K / LDH / Na / PL / RALB / TBIL / TC / TG / TP / gamma-GTP: tissue Plasma

SMILES: O=C(O)c1cc(/N=N/c2ccc(S(=O)(=O)Nc3ccccn3)cc2)ccc1O [SULFASALAZINE]
- TERMINAL_BW (72 h, time 3 day): 237.4 g
- APTT (72 h, time 3 day): 18.3 s
- Bas (72 h, time 3 day): 0%
- Eos (72 h, time 3 day): 1%
- Fbg (72 h, time 3 day): 245.4 mg/dL
- Hb (72 h, time 3 day): 13.3 g/dL
- Ht (72 h, time 3 day): 38.5%
- Lym (72 h, time 3 day): 78.2%
- MCH (72 h, time 3 day): 22 pg
- MCHC (72 h, time 3 day): 34.7%
- MCV (72 h, time 3 day): 63.5 fL
- Mono (72 h, time 3 day): 3%
- Neu (72 h, time 3 day): 16.8%
- PT (72 h, time 3 day): 12.4 s
- Plat (72 h, time 3 day): 125.9 x10_4/uL
- RBC (72 h, time 3 day): 607.8 x10_4/ul
- Ret (72 h, time 3 day): 6.3%
- WBC (72 h, time 3 day): 93.4 x10_2/uL
- KIDNEY_L (72 h, time 3 day): 1 g
- KIDNEY_R (72 h, time 3 day): 1 g
- KIDNEY_TOTAL (72 h, time 3 day): 2 g
- LIVER (72 h, time 3 day): 11.2 g
- A/G (72 h, time 3 day): 1.4
- ALP (72 h, time 3 day): 938.8 IU/L
- ALT (72 h, time 3 day): 39.8 IU/L
- AST (72 h, time 3 day): 74.2 IU/L
- BUN (72 h, time 3 day): 16.6 mg/dL
- CRE (72 h, time 3 day): 0.4 mg/dL
- Ca (72 h, time 3 day): 11 mg/dL
- Cl (72 h, time 3 day): 102.6 meq/L
- DBIL (72 h, time 3 day): 0.1 mg/dL
- GLC (72 h, time 3 day): 207.4 mg/dL
- IP (72 h, time 3 day): 7.3 mg/dL
- K (72 h, time 3 day): 4 meq/L
- LDH (72 h, time 3 day): 226.6 IU/L
- Na (72 h, time 3 day): 140.6 meq/L
- PL (72 h, time 3 day): 157 mg/dL
- RALB (72 h, time 3 day): 3.4 g/dL
- TBIL (72 h, time 3 day): 0.2 mg/dL
- TC (72 h, time 3 day): 75.6 mg/dL
- TG (72 h, time 3 day): 104 mg/dL
- TP (72 h, time 3 day): 5.7 g/dL
- gamma-GTP (72 h, time 3 day): 1.2 IU/L
- TERMINAL_BW ([…], time 7 day): 263.5 g
- TERMINAL_BW ([…], time 14 day): 308.2 g
- TERMINAL_BW ([…], time 28 day): 377.2 g
- APTT ([…], time 7 day): 19.2 s
- Bas ([…], time 7 day): 0%
- Eos ([…], time 7 day): 1%
- Fbg ([…], time 7 day): 223.4 mg/dL
- Hb ([…], time 7 day): 14.1 g/dL
- Ht ([…], time 7 day): 41.1%
- Lym ([…], time 7 day): 81.6%
- MCH ([…], time 7 day): 21.5 pg
- MCHC ([…], time 7 day): 34.2%
- MCV ([…], time 7 day): 62.8 fL
- Mono ([…], time 7 day): 2.6%
- Neu ([…], time 7 day): 14.2%
- PT ([…], time 7 day): 12.3 s
- Plat ([…], time 7 day): 129.3 x10_4/uL
- RBC ([…], time 7 day): 655 x10_4/ul
- Ret ([…], time 7 day): 5.5%
- WBC ([…], time 7 day): 126 x10_2/uL
- APTT ([…], time 14 day): 19.7 s
- Bas ([…], time 14 day): 0%
- Eos ([…], time 14 day): 1%
- Fbg ([…], time 14 day): 229.4 mg/dL
- Hb ([…], time 14 day): 14.7 g/dL
- Ht ([…], time 14 day): 41.7%
- Lym ([…], time 14 day): 78.4%
- MCH ([…], time 14 day): 20.9 pg
- MCHC ([…], time 14 day): 35.3%
- MCV ([…], time 14 day): 59.2 fL
- Mono ([…], time 14 day): 2.4%
- Neu ([…], time 14 day): 16.8%
- PT ([…], time 14 day): 12.2 s
- Plat ([…], time 14 day): 115.1 x10_4/uL
- RBC ([…], time 14 day): 703.6 x10_4/ul
- Ret ([…], time 14 day): 3.9%
- WBC ([…], time 14 day): 92.7 x10_2/uL
- APTT ([…], time 28 day): 20.6 s
- Bas ([…], time 28 day): 0%
- Eos ([…], time 28 day): 0.8%
- Fbg ([…], time 28 day): 217.8 mg/dL
- Hb ([…], time 28 day): 15.6 g/dL
- Ht ([…], time 28 day): 43.1%
- Lym ([…], time 28 day): 83.8%
- MCH ([…], time 28 day): 20.1 pg
- MCHC ([…], time 28 day): 36.2%
- MCV ([…], time 28 day): 55.6 fL
- Mono ([…], time 28 day): 1.4%
- Neu ([…], time 28 day): 12.4%
- PT ([…], time 28 day): 12.5 s
- Plat ([…], time 28 day): 98.7 x10_4/uL
- RBC ([…], time 28 day): 775.4 x10_4/ul
- Ret ([…], time 28 day): 2.3%
- WBC ([…], time 28 day): 97.9 x10_2/uL
- KIDNEY_L ([…], time 7 day): 1.1 g
- KIDNEY_R ([…], time 7 day): 1.1 g
- KIDNEY_TOTAL ([…], time 7 day): 2.2 g
- KIDNEY_L ([…], time 14 day): 1.2 g
- KIDNEY_R ([…], time 14 day): 1.2 g
- KIDNEY_TOTAL ([…], time 14 day): 2.4 g
- KIDNEY_L ([…], time 28 day): 1.3 g
- KIDNEY_R ([…], time 28 day): 1.3 g
- KIDNEY_TOTAL ([…], time 28 day): 2.5 g
- LIVER ([…], time 7 day): 12 g
- LIVER ([…], time 14 day): 13.3 g
- LIVER ([…], time 28 day): 14.8 g
- A/G ([…], time 7 day): 1.4
- ALP ([…], time 7 day): 884.4 IU/L
- ALT ([…], time 7 day): 33 IU/L
- AST ([…], time 7 day): 64.6 IU/L
- BUN ([…], time 7 day): 16.8 mg/dL
- CRE ([…], time 7 day): 0.4 mg/dL
- Ca ([…], time 7 day): 10.7 mg/dL
- Cl ([…], time 7 day): 103.4 meq/L
- DBIL ([…], time 7 day): 0.092 mg/dL
- GLC ([…], time 7 day): 233.6 mg/dL
- IP ([…], time 7 day): 7.5 mg/dL
- K ([…], time 7 day): 3.5 meq/L
- LDH ([…], time 7 day): 218.6 IU/L
- Na ([…], time 7 day): 140.8 meq/L
- PL ([…], time 7 day): 160.4 mg/dL
- RALB ([…], time 7 day): 3.4 g/dL
- TBIL ([…], time 7 day): 0.1 mg/dL
- TC ([…], time 7 day): 78.8 mg/dL
- TG ([…], time 7 day): 99.8 mg/dL
- TP ([…], time 7 day): 5.9 g/dL
- gamma-GTP ([…], time 7 day): 1.2 IU/L
- A/G ([…], time 14 day): 1.3
- ALP ([…], time 14 day): 900.6 IU/L
- ALT ([…], time 14 day): 43.4 IU/L
- AST ([…], time 14 day): 76.6 IU/L
- BUN ([…], time 14 day): 18.6 mg/dL
- CRE ([…], time 14 day): 0.5 mg/dL
- Ca ([…], time 14 day): 10.6 mg/dL
- Cl ([…], time 14 day): 103.4 meq/L
- DBIL ([…], time 14 day): 0.1 mg/dL
- GLC ([…], time 14 day): 189.8 mg/dL
- IP ([…], time 14 day): 6.4 mg/dL
- K ([…], time 14 day): 3.8 meq/L
- LDH ([…], time 14 day): 292 IU/L
- Na ([…], time 14 day): 140.4 meq/L
- PL ([…], time 14 day): 155 mg/dL
- RALB ([…], time 14 day): 3.3 g/dL
- TBIL ([…], time 14 day): 0.2 mg/dL
- TC ([…], time 14 day): 63.2 mg/dL
- TG ([…], time 14 day): 175.8 mg/dL
- TP ([…], time 14 day): 6 g/dL
- gamma-GTP ([…], time 14 day): 1.2 IU/L
- A/G ([…], time 28 day): 1.3
- ALP ([…], time 28 day): 718.2 IU/L
- ALT ([…], time 28 day): 49.2 IU/L
- AST ([…], time 28 day): 80.6 IU/L
- BUN ([…], time 28 day): 17.8 mg/dL
- CRE ([…], time 28 day): 0.5 mg/dL
- Ca ([…], time 28 day): 10.3 mg/dL
- Cl ([…], time 28 day): 103.6 meq/L
- DBIL ([…], time 28 day): 0.1 mg/dL
- GLC ([…], time 28 day): 217.6 mg/dL
- IP ([…], time 28 day): 6.1 mg/dL
- K ([…], time 28 day): 3.7 meq/L
- LDH ([…], time 28 day): 287.2 IU/L
- Na ([…], time 28 day): 141.2 meq/L
- PL ([…], time 28 day): 148.4 mg/dL
- RALB ([…], time 28 day): 3.4 g/dL
- TBIL ([…], time 28 day): 0.2 mg/dL
- TC ([…], time 28 day): 68.8 mg/dL
- TG ([…], time 28 day): 151.4 mg/dL
- TP ([…], time 28 day): 6.2 g/dL
- gamma-GTP ([…], time 28 day): 0.8 IU/L
